# Values quoted from earlier work, collected in paper PMC8942822 (The Journal of Biological Chemistry, 2022).
# Tests used:
# [1] = molecular target: T1, SpaASLH (SLH domain trimer of S-layer protein SpaA, wild-type) (Paenibacillus alvei, UniProt C1JZ07)
# T1 sequence (C1JZ07 21-193): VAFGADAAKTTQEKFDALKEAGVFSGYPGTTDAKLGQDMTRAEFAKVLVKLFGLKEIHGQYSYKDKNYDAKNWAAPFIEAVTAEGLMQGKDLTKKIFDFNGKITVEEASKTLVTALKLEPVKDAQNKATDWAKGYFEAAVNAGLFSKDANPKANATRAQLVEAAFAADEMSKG
# SpaASLH/G46A/G109A = details: 20 °C, SpaASLH/G46A/G109A double mutant, previously published
# SpaASLH/G109A = molecular target: T2, SpaASLH/G109A (Paenibacillus alvei, UniProt C1JZ07, G109A)
# T2 sequence (C1JZ07 21-193 G109A): T1 sequence (C1JZ07 21-193)
# [2] = ITC, 20 °C, SpaASLH wild-type, previously published
# [3] = ITC, 20 °C, SpaASLH/G109A, previously published
Binding by ITC ([1]; ITC experiments with internal-repeat SCWP disaccharide),Binding by ITC (SpaASLH/G46A/G109A),"KA [1, 2]","Kd [1, 2]","Stoichiometry [1, 2]","ΔG [1, 2]","ΔH [1, 2]","−TΔS [1, 2]","Decrease of ITC binding affinity, G109A mutant (G1 binding) vs wild-type (SpaASLH/G109A)",KA (SpaASLH/G109A; [3]),Kd (SpaASLH/G109A; [3]),Stoichiometry (SpaASLH/G109A; [3]),ΔG (SpaASLH/G109A; [3]),ΔH (SpaASLH/G109A; [3]),−TΔS (SpaASLH/G109A; [3]),SMILES
lack of corresponding measurable binding,,,,,,,,,,,,,,,"CO[C@@H]1O[C@@H]2CO[C@](C)(C(=O)O)O[C@H]2[C@H](O[C@@H]2O[C@H](CO)[C@@H](O)[C@H](O)[C@H]2NC(C)=O)[C@@H]1NC(C)=O [internal disaccharide, β-D-GlcNAc-(1→3)-4,6-Pyr-β-D-ManNAcOMe]"
,No binding,3.48 × 10^7 ± 0.36 M^−1,29 nM,0.91 ± 0.04,-42.10 ± 0.65 kJ/mol,-87.85 ± 15.62 kJ/mol,45.74 ± 16.01 kJ/mol,tenfold,4.48 × 10^6 ± 0.62 M^−1,226 nM,0.92 ± 0.04,-37.31 ± 0.33 kJ/mol,-50.64 ± 7.29 kJ/mol,13.33 ± 7.0 kJ/mol,"CO[C@@H]1O[C@@H]2CO[C@](C)(C(=O)O)O[C@H]2[C@H](O)[C@@H]1NC(C)=O [monosaccharide, 4,6-Pyr-β-D-ManNAcOMe]"
